Reference: patent US20260049076A1, “Tertiary Amine Substituted Bicyclic Compounds Useful as T Cell Activators” (BRISTOL-MYERS SQUIBB COMPANY, priority 2022, published 2026)

Tests used:
[1] = target: T1, human DGKζ (Homo sapiens, UniProt Q13574); assay: In vitro DGK inhibition assay, DGKζ liposome (LIPGLO) assay; assay type: biochemical; conditions: read-out: Enzyme Inhibition DGKzeta IC50
T1 construct: TVMV protease cleavage site (C); Hexa-His (C); made in house; host or cells: Sf9 insect cells (baculovirus)
T1 sequence (Q13574 with tags, fused parts or gaps isoform Q13574-4): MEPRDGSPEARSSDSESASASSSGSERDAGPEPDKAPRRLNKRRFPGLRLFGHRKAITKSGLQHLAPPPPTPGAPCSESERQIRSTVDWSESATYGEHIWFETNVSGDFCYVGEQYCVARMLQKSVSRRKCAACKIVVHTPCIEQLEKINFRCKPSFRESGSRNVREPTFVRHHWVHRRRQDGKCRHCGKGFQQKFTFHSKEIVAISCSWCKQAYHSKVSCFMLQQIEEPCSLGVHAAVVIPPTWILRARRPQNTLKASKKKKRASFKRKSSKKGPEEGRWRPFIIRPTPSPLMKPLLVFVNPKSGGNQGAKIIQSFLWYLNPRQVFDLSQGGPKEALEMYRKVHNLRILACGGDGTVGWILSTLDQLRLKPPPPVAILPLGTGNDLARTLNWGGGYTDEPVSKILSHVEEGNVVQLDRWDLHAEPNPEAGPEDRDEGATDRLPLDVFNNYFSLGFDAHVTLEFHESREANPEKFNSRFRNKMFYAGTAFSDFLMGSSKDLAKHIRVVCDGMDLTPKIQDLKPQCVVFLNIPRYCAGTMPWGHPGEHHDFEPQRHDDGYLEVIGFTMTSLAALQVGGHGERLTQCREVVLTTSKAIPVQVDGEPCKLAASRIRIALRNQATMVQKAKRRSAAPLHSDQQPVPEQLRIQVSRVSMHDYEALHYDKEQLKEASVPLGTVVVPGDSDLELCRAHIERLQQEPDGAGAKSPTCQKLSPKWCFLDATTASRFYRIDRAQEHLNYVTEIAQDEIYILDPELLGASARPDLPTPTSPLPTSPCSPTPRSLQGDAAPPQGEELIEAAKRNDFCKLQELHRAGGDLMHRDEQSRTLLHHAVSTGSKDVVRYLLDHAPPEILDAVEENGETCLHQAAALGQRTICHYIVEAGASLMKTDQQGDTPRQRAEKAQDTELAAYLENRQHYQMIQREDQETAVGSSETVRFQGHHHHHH
In short: (§1)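 Baculovirus/Sf9-expressed His-tagged human DGKα or DGKζ (5 nM) on extruded liposomes (2 mM PS, 0.25 mM DAG, 2.75 mM PC) in MOPS pH 7.5 with MgCl2, CaCl2 and 150 μM ATP, 1 h.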

[2] = target: T2, human DGKα (Homo sapiens, UniProt P23743); assay: In vitro DGK inhibition assay, DGKα liposome (LIPGLO) assay; assay type: biochemical; conditions: read-out: Enzyme Inhibition DGKalpha IC50
T2 construct: TVMV protease cleavage site (C); Hexa-His (C); made in house; host or cells: Sf9 insect cells (baculovirus)
T2 sequence (P23743 with tags, fused parts or gaps): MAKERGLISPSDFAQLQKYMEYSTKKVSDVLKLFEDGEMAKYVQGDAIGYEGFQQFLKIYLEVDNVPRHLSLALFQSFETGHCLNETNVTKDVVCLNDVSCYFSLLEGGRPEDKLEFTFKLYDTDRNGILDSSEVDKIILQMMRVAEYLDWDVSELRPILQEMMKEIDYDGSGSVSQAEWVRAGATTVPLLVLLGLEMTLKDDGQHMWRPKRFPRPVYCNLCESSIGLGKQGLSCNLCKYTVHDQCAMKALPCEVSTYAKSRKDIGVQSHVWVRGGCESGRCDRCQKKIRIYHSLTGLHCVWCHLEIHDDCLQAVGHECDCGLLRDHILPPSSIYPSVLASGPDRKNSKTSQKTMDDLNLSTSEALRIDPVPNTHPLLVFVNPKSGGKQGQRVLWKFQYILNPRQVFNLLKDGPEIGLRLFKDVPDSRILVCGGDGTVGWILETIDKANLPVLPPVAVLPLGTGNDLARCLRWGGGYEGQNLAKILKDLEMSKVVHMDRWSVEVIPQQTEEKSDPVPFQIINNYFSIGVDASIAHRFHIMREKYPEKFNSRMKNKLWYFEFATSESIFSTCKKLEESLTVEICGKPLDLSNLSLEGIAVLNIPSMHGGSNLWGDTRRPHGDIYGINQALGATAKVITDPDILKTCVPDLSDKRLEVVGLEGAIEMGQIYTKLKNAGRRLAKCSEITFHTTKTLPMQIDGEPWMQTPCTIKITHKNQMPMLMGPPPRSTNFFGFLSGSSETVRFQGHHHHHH
In short: as §1

[3] = target: DGKalpha (Homo sapiens, UniProt P23743); assay: Translocation DGKalpha; assay type: cell-based
Sequence of DGKalpha (P23743 whole entry): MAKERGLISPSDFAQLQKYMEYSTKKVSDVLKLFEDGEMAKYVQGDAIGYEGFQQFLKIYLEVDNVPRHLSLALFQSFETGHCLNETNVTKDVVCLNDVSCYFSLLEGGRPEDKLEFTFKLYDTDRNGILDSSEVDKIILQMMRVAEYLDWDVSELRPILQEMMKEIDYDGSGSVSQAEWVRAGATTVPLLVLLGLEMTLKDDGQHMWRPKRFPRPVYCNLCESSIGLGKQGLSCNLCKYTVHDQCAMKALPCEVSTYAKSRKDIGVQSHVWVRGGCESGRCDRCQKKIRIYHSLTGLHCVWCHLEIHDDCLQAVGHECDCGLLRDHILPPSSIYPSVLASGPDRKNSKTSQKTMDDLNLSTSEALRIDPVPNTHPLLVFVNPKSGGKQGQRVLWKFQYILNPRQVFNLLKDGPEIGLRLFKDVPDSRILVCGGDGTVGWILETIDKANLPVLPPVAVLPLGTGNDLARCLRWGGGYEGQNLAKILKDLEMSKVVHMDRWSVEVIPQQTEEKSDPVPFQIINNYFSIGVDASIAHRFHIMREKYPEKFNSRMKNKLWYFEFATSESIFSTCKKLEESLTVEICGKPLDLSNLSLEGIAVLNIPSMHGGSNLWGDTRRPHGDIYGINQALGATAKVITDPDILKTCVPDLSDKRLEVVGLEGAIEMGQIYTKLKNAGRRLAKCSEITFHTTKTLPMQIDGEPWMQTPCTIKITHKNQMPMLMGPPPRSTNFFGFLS

[4] = target: DGKzeta (Homo sapiens, UniProt Q13574); assay: Translocation DGKzeta; assay type: cell-based
Sequence of DGKzeta (Q13574 whole entry): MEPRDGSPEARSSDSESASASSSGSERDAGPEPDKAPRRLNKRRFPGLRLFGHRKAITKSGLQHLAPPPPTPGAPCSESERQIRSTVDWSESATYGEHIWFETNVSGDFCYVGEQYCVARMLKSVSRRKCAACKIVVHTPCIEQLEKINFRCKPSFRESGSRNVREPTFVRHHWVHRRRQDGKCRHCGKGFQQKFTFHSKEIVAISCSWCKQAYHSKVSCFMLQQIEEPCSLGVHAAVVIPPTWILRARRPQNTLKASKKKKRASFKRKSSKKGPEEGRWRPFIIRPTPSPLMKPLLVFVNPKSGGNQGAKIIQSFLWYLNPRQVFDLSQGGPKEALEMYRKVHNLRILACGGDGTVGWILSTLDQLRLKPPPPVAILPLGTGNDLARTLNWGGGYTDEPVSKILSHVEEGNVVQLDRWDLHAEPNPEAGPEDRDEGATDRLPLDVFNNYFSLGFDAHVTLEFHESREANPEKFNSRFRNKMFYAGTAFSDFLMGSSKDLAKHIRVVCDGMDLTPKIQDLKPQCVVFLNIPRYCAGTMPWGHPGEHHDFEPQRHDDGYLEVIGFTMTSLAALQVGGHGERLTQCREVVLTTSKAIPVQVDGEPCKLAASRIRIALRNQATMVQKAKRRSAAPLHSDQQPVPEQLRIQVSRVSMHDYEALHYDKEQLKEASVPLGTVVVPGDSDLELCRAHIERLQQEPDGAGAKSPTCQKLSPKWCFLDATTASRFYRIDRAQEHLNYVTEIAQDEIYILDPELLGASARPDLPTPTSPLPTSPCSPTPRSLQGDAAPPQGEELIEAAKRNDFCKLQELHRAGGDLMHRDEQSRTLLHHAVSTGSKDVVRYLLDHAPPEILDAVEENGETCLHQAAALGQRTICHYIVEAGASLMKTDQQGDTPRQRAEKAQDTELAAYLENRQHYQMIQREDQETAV

Structure (SMILES)	IC50 [1] [µM]	IC50 [2] [µM]	EC50 [3] [µM]	EC50 [4] [µM]
Cn1c(=O)cc(N(CC2CC2)c2ccc(Br)cc2)c2nc(C#N)ccc21 [Example 18, 8-[(4-bromophenyl)(cyclopropylmethyl)amino]-5-methyl-6-oxo-5,6-dihydro-1,5-naphthyridine-2-carbonitrile]	0.23	0.26	2.7	5
Cn1c(=O)cc(N(CC2CC2)c2ccc(OCC(F)(F)F)cc2)c2nc(C#N)ccc21 [Example 37, 8-((cyclopropylmethyl)(4-(2,2,2-trifluoroethoxy)phenyl)amino)-5-methyl-6-oxo-5,6-dihydro-1,5-naphthyridine-2-carbonitrile]	0.35	1.1	10	5
Cc1ccc(N(CC2CC2)c2cc(=O)n(C)c3ccc(C#N)nc23)cc1 [Example 62, 8-((cyclopropylmethyl)(p-tolyl)amino)-5-methyl-6-oxo-5,6-dihydro-1,5-naphthyridine-2-carbonitrile]	2.9	3.8	0.75	0.54
Cn1c(=O)cc(N(CC2CC2)c2ccc3occc3c2)c2nc(C#N)ccc21 [Example 65, 8-(benzofuran-5-yl (cyclopropylmethyl)amino)-5-methyl-6-oxo-5,6-dihydro-1,5-naphthyridine-2-carbonitrile]	2.7	1.9	1.1	0.57
Cn1c(=O)cc(N(CC2CC2)c2ccc(OC(F)F)nc2)c2nc(C#N)ccc21 [Example 112, 8-((cyclopropylmethyl)(6-(difluoromethoxy)pyridin-3-yl)amino)-5-methyl-6-oxo-5,6-dihydro-1,5-naphthyridine-2-carbonitrile]	1.1	4.7	> 3	0.091
Cc1cc(C2CC2)ccc1N(CC1CC1)c1cc(=O)n(C)c2ccc(C#N)nc12 [Example 113, 8-((4-cyclopropyl-2-methylphenyl) (cyclopropylmethyl)amino)-5-methyl-6-oxo-5,6-dihydro-1,5-naphthyridine-2-carbonitrile]	29	4.8	> 3	0.25
Cn1c(=O)cc(N(CC2CC2)c2ccc(C3CC3)nc2)c2nc(C#N)ccc21 [Example 114, 8-((cyclopropylmethyl)(6-cyclopropylpyridin-3-yl)amino)-5-methyl-6-oxo-5,6-dihydro-1,5-naphthyridine-2-carbonitrile]	1.4	7.9	> 3	0.13
CN(C)c1ccc(N(CC2CC2)c2cc(=O)n(C)c3ccc(C#N)nc23)cc1 [Example 116, 8-((cyclopropylmethyl)(4-(dimethylamino)phenyl)amino)-5-methyl-6-oxo-5,6-dihydro-1,5-naphthyridine-2-carbonitrile]	2.4	8.7	> 3	0.11
Cc1cc(N(CC2CC2)c2cc(=O)n(C)c3ccc(C#N)nc23)ccc1OC(F)F [Example 117, 8-((cyclopropylmethyl)(4-(difluoromethoxy)-3-methylphenyl)amino)-5-methyl-6-oxo-5,6-dihydro-1,5-naphthyridine-2-carbonitrile]	4.7	8.8	> 3	0.16
Cn1c(=O)cc(N(CC2CC2)c2ccc3c(c2)OCCO3)c2nc(C#N)ccc21 [Example 120, 8-((cyclopropylmethyl)(2,3-dihydrobenzo[b][1,4]dioxin-6-yl)amino)-5-methyl-6-oxo-5,6-dihydro-1,5-naphthyridine-2-carbonitrile]	6.9	13	0.92	0.33
Cn1c(=O)cc(N(CC2CC2)c2ccc(C3CC3)c(-c3ccccc3)c2)c2nc(C#N)ccc21 [Example 122, 8-((6-cyclopropyl-[1,1′-biphenyl]-3-yl)(cyclopropylmethyl)amino)-5-methyl-6-oxo-5,6-dihydro-1,5-naphthyridine-2-carbonitrile]	22	19	> 3	0.17
Cn1c(=O)cc(N(CC2CC2)c2ccc(OC(F)F)cn2)c2nc(C#N)ccc21 [Example 123]	1.2	24	> 3	0.64
Cn1c(=O)cc(N(CC2CC2)c2ccc(C3CC3)c(-c3ccc(N4CCOCC4)cc3)c2)c2nc(C#N)ccc21 [Example 124, 8-((6-cyclopropyl-4′-morpholino-[1,1′-biphenyl]-3-yl)(cyclopropylmethyl)amino)-5-methyl-6-oxo-5,6-dihydro-1,5-naphthyridine-2-carbonitrile]	> 38	34	2.5	0.18
Cn1c(=O)cc(N(CC2CC2)c2ccc(C3CC3)c(-c3ccc(C4CC4)cc3)c2)c2nc(C#N)ccc21 [Example 125, 8-((cyclopropylmethyl)(4′,6-dicyclopropyl-[1,1′-biphenyl]-3-yl)amino)-5-methyl-6-oxo-5,6-dihydro-1,5-naphthyridine-2-carbonitrile]	32	36	> 3	0.091
Cn1c(=O)cc(N(CC2CC2)c2ccc(C3CC3)c(-c3cccc(F)c3)c2)c2nc(C#N)ccc21 [Example 126, 8-((6-cyclopropyl-3′-fluoro-[, 1′-biphenyl]-3-yl) (cyclopropylmethyl)amino)-5-methyl-6-oxo-5,6-dihydro-1,5-naphthyridine-2-carbonitrile]	17	> 38	> 3	0.085
Cn1c(=O)cc(N(CC2CC2)c2ccc(C3CC3)c(-c3ccc(F)cc3)c2)c2nc(C#N)ccc21 [Example 127, 8-((6-cyclopropyl-4′-fluoro-[1,1′-biphenyl]-3-yl)(cyclopropylmethyl)amino)-5-methyl-6-oxo-5,6-dihydro-1,5-naphthyridine-2-carbonitrile]	18	> 38	> 3	0.1
Cn1c(=O)cc(N(CC2CC2)c2ccc(C3CC3)c(-c3ccc(Cl)cc3)c2)c2nc(C#N)ccc21 [Example 128, 8-((4′-chloro-6-cyclopropyl-[1,1′-biphenyl]-3-yl)(cyclopropylmethyl)amino)-5-methyl-6-oxo-5,6-dihydro-1,5-naphthyridine-2-carbonitrile]	> 38	> 38	> 3	0.13
COc1cccc(-c2cc(N(CC3CC3)c3cc(=O)n(C)c4ccc(C#N)nc34)ccc2C2CC2)c1 [Example 129, 8-((6-cyclopropyl-3′-methoxy-[1,1′-biphenyl]-3-yl)(cyclopropylmethyl)amino)-5-methyl-6-oxo-5,6-dihydro-1,5-naphthyridine-2-carbonitrile]	> 38	> 38	> 1.5	0.13
Cn1c(=O)cc(N(CC2CC2)c2ccc(C3CC3)c(-c3ccc(C(N)=O)cc3)c2)c2nc(C#N)ccc21 [Example 130, 5′-((6-cyano-1-methyl-2-oxo-1,2-dihydro-1,5-naphthyridin-4-yl)(cyclopropylmethyl)amino)-2′-cyclopropyl-[1,1′-biphenyl]-4-carboxamide]	> 38	> 38	> 3	0.16
Cn1c(=O)cc(N(CC2CC2)c2ccc(C3CC3)c(-c3ccc(OCC4CC4)cc3)c2)c2nc(C#N)ccc21 [Example 131, 8-((6-cyclopropyl-4′-(cyclopropylmethoxy)-[1,1′-biphenyl]-3-yl) (cyclopropylmethyl)amino)-5-methyl-6-oxo-5,6-dihydro-1,5-naphthyridine-2-carbonitrile]	34	> 38	> 3	0.18
Cc1cc(N(CC2CC2)c2cc(=O)n(C)c3ccc(C#N)nc23)ccc1C1CC1 [Example 132]	3.6	> 38	> 3	0.2
CC(=O)N(C)c1ccc(N(CC2CC2)c2cc(=O)n(C)c3ccc(C#N)nc23)cc1 [Example 133]	4.4	> 38	> 3	0.58
